Measured values: patent US8034924B2, “Process for production of crystal of purine nucleoside compound” (Ajinomoto Co., Inc., priority 2007, dated 2011)

Assay: Storage stability of crystals of 2′,3′-dideoxyinosine (increase of hypoxanthine after storage, HPLC)
Assay type: physicochemical
Details: crystals stored at 60° C., at RH75% for 7 days
Method: In order to examine the storage stability, the obtained crystals were stored at 60° C., at RH75% for 7 days.
The concentration of the phosphate on the surface of the crystals and the amount of hypoxanthine were analyzed in the conditions shown in the following Table 2.

[1] = Table 3, phosphate removed by suspending in water vs Example 3
[2] = Table 4, degree of washing changed per sample

| SMILES | Increase of hypoxanthine after storage (%/DDI) (Table 1) | Increase of hypoxanthine after storage (%/DDI) [2] [%/DDI] | other results |
| --- | --- | --- | --- |
| OC[C@@H]1CC[C@H](n2cnc3c(O)ncnc32)O1 [Comp. Ex. 1, 2′,3′-dideoxyinosine, reference compound] | 2.24 |  |  |
| OC[C@@H]1CC[C@H](n2cnc3c(O)ncnc32)O1 [Comp. Ex. 2, 2′,3′-dideoxyinosine, reference compound] | 1.91 |  |  |
| OC[C@@H]1CC[C@H](n2cnc3c(O)ncnc32)O1 [Comp. Ex. 3, 2′,3′-dideoxyinosine, reference compound] | 2.21 |  |  |
| OC[C@@H]1CC[C@H](n2cnc3c(O)ncnc32)O1 [Comp. Ex. 4, 2′,3′-dideoxyinosine, reference compound] | 2.20 |  |  |
| OC[C@@H]1CC[C@H](n2cnc3c(O)ncnc32)O1 [Comp. Ex. 5, 2′,3′-dideoxyinosine, reference compound] |  |  | Increase of hypoxanthine after storage (%/DDI) [1]: 4.32 %/DDI |
| OC[C@@H]1CC[C@H](n2cnc3c(O)ncnc32)O1 [Comp. Ex. 6, 2′,3′-dideoxyinosine, reference compound] |  | 2.47 |  |
| OC[C@@H]1CC[C@H](n2cnc3c(O)ncnc32)O1 [Comp. Ex. 7, 2′,3′-dideoxyinosine, reference compound] |  | 2.24 |  |
| OC[C@@H]1CC[C@H](n2cnc3c(O)ncnc32)O1 [Comp. Ex. 8, 2′,3′-dideoxyinosine, reference compound] |  | 2.20 |  |
| OC[C@@H]1CC[C@H](n2cnc3c(O)ncnc32)O1 [Comp. Ex. 9, 2′,3′-dideoxyinosine, reference compound] |  | 2.21 |  |
| OC[C@@H]1CC[C@H](n2cnc3c(O)ncnc32)O1 [Comp. Ex. 10, 2′,3′-dideoxyinosine, reference compound] |  | 1.91 |  |
| OC[C@@H]1CC[C@H](n2cnc3c(O)ncnc32)O1 [Ex. 1, 2′,3′-dideoxyinosine] | 0.45 |  |  |
| OC[C@@H]1CC[C@H](n2cnc3c(O)ncnc32)O1 [Ex. 2, 2′,3′-dideoxyinosine] | 0.48 |  |  |
| OC[C@@H]1CC[C@H](n2cnc3c(O)ncnc32)O1 [Ex. 3, 2′,3′-dideoxyinosine] | 0.20 |  | Increase of hypoxanthine after storage (%/DDI) [1]: 0.20 %/DDI |
| OC[C@@H]1CC[C@H](n2cnc3c(O)ncnc32)O1 [Ex. 4, 2′,3′-dideoxyinosine] | 0.54 |  |  |
| OC[C@@H]1CC[C@H](n2cnc3c(O)ncnc32)O1 [Ex. 5, 2′,3′-dideoxyinosine] |  | 1.38 |  |
| OC[C@@H]1CC[C@H](n2cnc3c(O)ncnc32)O1 [Ex. 6, 2′,3′-dideoxyinosine] |  | 1.03 |  |
| OC[C@@H]1CC[C@H](n2cnc3c(O)ncnc32)O1 [Ex. 7, 2′,3′-dideoxyinosine] |  | 1.19 |  |
| OC[C@@H]1CC[C@H](n2cnc3c(O)ncnc32)O1 [Ex. 8, 2′,3′-dideoxyinosine] |  | 0.90 |  |
| OC[C@@H]1CC[C@H](n2cnc3c(O)ncnc32)O1 [Ex. 9, 2′,3′-dideoxyinosine] |  | 0.70 |  |
| OC[C@@H]1CC[C@H](n2cnc3c(O)ncnc32)O1 [Ex. 10, 2′,3′-dideoxyinosine] |  | 0.97 |  |
| OC[C@@H]1CC[C@H](n2cnc3c(O)ncnc32)O1 [Ex. 11, 2′,3′-dideoxyinosine] |  | 0.90 |  |
| OC[C@@H]1CC[C@H](n2cnc3c(O)ncnc32)O1 [Ex. 12, 2′,3′-dideoxyinosine] |  | 1.26 |  |
| OC[C@@H]1CC[C@H](n2cnc3c(O)ncnc32)O1 [Ex. 13, 2′,3′-dideoxyinosine] |  | 1.04 |  |
